Data published in patent publication US20090062291A1, “PHOSPHODIESTERASE 10 INHIBITORS” (priority 2007, published 2009).

Target: T1, mPDE10A7 (Mus musculus, UniProt Q8CA95)
T1 sequence (Q8CA95 446-763 limits assumed): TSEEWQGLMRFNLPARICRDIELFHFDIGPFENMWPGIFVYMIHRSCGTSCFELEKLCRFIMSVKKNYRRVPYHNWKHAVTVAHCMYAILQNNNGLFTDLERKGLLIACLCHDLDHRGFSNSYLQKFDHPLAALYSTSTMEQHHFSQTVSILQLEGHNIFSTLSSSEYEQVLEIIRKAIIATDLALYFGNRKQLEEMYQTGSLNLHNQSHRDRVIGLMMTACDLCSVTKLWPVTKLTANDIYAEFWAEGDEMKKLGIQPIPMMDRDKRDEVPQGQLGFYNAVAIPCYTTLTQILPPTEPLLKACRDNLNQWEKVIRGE
Assay: mPDE10A7 enzyme inhibition (IMAP fluorescence polarization)
Type: biochemical
Settings: fluorescein labeled cAMP or cGMP substrate, 30 min at room temperature
Description: Enzyme Activity. To analyze the enzyme activity, 5 μL of serial diluted mPDE10A7 containing lysate were incubated with equal volumes of diluted (100-fold) fluorescein labeled cAMP or cGMP for 30 min in MDC HE 96-well assay plates (Molecular Devices Corp., Sunnyvale Calif.) at room temperature. Both the enzyme and the substrates were diluted in the following assay buffer: Tris/HCl (pH 8.0) 50 mM, MgCl2 5 mM, 2-mercaptoethanol 4 mM, and BSA 0.33 mg/mL. After incubation, the reaction was stopped by adding 20 μL of diluted (400-fold) binding reagents and was incubated for an hour at room temperature. The plates were counted in an Analyst GT (Molecular Devices) for fluorescence polarization. An IMAP assay kit (Molecular Devices) was used to assess enzyme properties of mPDE10A7. Data were analyzed with SOFTMAX PRO software (Molecular Devices).
Enzyme Inhibition. To check the inhibition profile, 10 μL of serial diluted compounds were incubated with 30 μl of diluted PDE enzymes in a 96-well polystyrene assay plate for 30 min at room temperature. After incubation, 5 μL of the compound-enzyme mixture were aliquoted into a MDC HE black plate, mixed with 5 μL of 100-fold diluted fluorescein labeled substrates (cAMP or cGMP), and incubated for 30 min at room temperature. The reaction was stopped by adding 20 μL of diluted binding reagents and counted in an Analyst GT for fluorescence polarization. The data were analyzed with SoftMax Pro.
The IC50 values of a representative number of compounds of the invention in the above assay are as follows: […]

Row | IC50 | SMILES
1 | 1.1 nM | COc1cc2nncc(-c3cnc(N4CCC(C(C)(C)O)CC4)c(C4CC4)c3)c2cc1OC [Cpd 1, 2-(1-(3-cyclopropyl-5-(6,7-dimethoxycinnolin-4-yl)pyridin-2-yl)piperidin-4-yl)propan-2-ol]
2 | 1.7 nM | C=Cc1cc(-c2cnnc3cc(OC)c(OC)cc23)cnc1NC(C)C [Cpd 22]
3 | 12 nM | COc1cc2nncc(-c3cnc(NC(C)C)c(C#N)c3)c2cc1OC [Cpd 25]
4 | 9 nM | COc1cc2nncc(-c3cnc(NC(C)C)c(C(N)=O)c3)c2cc1OC [Cpd 26]

More lines, now with the values behind:

Row | SMILES | IC50
5 | COc1cc2nncc(-c3ccc(NC4CCCc5ncccc54)nc3)c2cc1OC (stereo not shown) [Cpd 5] | 2.3 nM
6 | COc1cc2nncc(-c3ccc(N[C@@H]4CCCc5ncccc54)nc3)c2cc1OC [Cpd 6] | 2.6 nM
7 | COc1cc2nncc(-c3ccc(NC4CCOc5ccccc54)nc3)c2cc1OC (stereo not shown) [Cpd 8] | 12 nM
8 | COc1cc2nncc(-c3ccc(N[C@H]4CCCc5c(Br)cccc54)nc3)c2cc1OC [Cpd 11] | 258 nM
9 | COc1cc2nncc(-c3ccc(NC4CCc5cccc(OC)c5C4)nc3)c2cc1OC (stereo not shown) [Cpd 14] | 143 nM
10 | COc1cc2nncc(-c3cnc(N4CCC(O)(c5cccnc5)CC4)c(C4CC4)c3)c2cc1OC [Cpd 15] | 0.2 nM
